Assay results taken from patent US4254123A, “Novel imidazoquinoxalines” (Roussel Uclaf, priority 1978, dated 1981).
Read-outs that look alike come from different tables or passages of the source.

Test system: Passive cutaneous anaphylaxis
Assay: Passive cutaneous anaphylaxis (PCA) in rats
Format: in vivo
Conditions: dosed immediately prior to i.v. antigen/Evans blue challenge, blueing scored after 30 minutes; for ED50: Rattus norvegicus, 0.5 h
Experimental: Cutaneous anaphylaxis can be induced in rats by intradermal (ID) sensitization with antiserum followed three days later by systemic challenge with antigen. Evans blue dye injected with the antigen is used as a marker to assess the severity of the local response. Anti-allergic drugs inhibit this reaction. […] Brown: Pergamon Press:-male rats weighing 180-220 grams are used in groups of seven.
1. Wash 120 grams of Al(OH)3 gel in 140 ml of saline (use of a macerater facilitates mixing).
2. Centrifuge at 3,000 r.p.m. for about 10 minutes.
3. Resuspend the precipitate with 300 ml of albumen egg powder (1.3 mg/ml) in saline and allow to stand for 30 minutes.
4. Centrifuge at 3,000 r.p.m. for 10 minutes.
5. Weigh the wet precipitate and to each gram weight add 1 ml of saline. Store in refrigerator (Quantity sufficient for 60 rats for a 3 day sensitization program).
1 ml of the alum precipitated ovalbumen was injected subcutaneously into rats weighing 180-200 grams on days 0,2,4. The rats were bled on day 14 either by cardiac puncture of via the dorsal abdominal aorta. Equal quantities of serum from each animal were pooled and thoroughly mixed and 2 ml aliquots were stored at -20° C. in plastic tubes.
(A) SENSITIZATION: The rats were anaesthetized with Nembutal (40-60 mg/kg i.p.) and were then sensitized by four ID injections (0.1 ml each) on their shaved backs. The animals were then left for a period of three days to develop sensitization.
The injections were speeded up by using an automatic 1 ml self-filling glass syringe. The "challenged" rats were killed after 30 minutes, (usually pithed) and their skin on the dorsal surface was removed. The degree and area of blueing, proportional to the anaphylactic reaction was assessed on a four point scoring system.
1. Total scores for sites 1,2,3 and 4=X
2. Mean value of X for each group=X
3. X t=X for test group; X c=X for control group [formula]

[1] = intravenous, read-out: ED 50 (dose of drug giving 50% inhibition), intravenously

Compound | ED 50 (dose of drug giving 50% inhibition), intravenously (intravenous) [mg/kg] | ED 50 (dose of drug giving 50% inhibition), orally (oral) [mg/kg] | ED50 [1] [mg/kg] | ED50 (oral, read-out: ED 50 (dose of drug giving 50% inhibition), orally) [mg/kg]
7- and 8-chloro-imidazo-[1,2-a]-quinoxaline-2-carboxylic acid [Example 4] | 0.12 | 0.71 |  | 
O=C(O)c1cn2c(cnc3ccccc32)n1 [Example 1, Imidazo-[1,2-a]-quinoxaline-2-carboxylic acid] |  |  | 0.073 | 0.73
O=C(O)c1cn2c(cnc3cc(Cl)c(Cl)cc32)n1 [Example 3, 7,8-dichloro-imidazo-[1,2-a]-quinoxaline-2-carboxylic acid] |  |  | 0.2 | 
CCOc1nc2ccccc2n2cc(C(=O)O)nc12 [Example 5, 4-ethoxy-imidazo-[1,2-a]-quinoxaline-2-carboxylic acid] |  |  | 0.83 | 
NC(=O)c1nc2ccccc2n2cc(C(=O)O)nc12 [Example 6, 4-carbamoyl-imidazo-[1,2-a]-quinoxaline-2-carboxylic acid] |  |  | 3.13 | 
